In patent publication US9833497B2, “Human originated EGF domain proteins and use of the same” (CHENGDU SOURCEBIO LIMITED-LIABILITY COMPANY, priority 2013, dated 2017):

Key:
Type in all cases: cell-based
[1] = tested on: Proteus mirabilis; experiment: MIC against Gram-negative bacteria: Proteus mirabilis; conditions: 10 h cultivation at 37° C.; for MIC / MIC (μg/mL) P. mirabilis: P. mirabilis
Procedure, shortened: (§1)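 MIC, the lowest recombinant protein concentration giving no bacterial growth, found by two-fold serial dilution of human EGF-domain proteins in triplicate. Inoculum 5×10^5 CFU/mL in LB from cultures at McFarland 0.5; plates incubated at 37° C, 175 rpm shaking.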

[2] = tested on: Serratia marcescens; experiment: MIC against Gram-negative bacteria: Serratia marcescens; conditions: 10 h cultivation at 37° C.; for MIC / MIC (μg/mL) S. marcescens: S. marcescens
Procedure, shortened: as §1

[3] = tested on: Pseudomonas aeruginosa; experiment: MIC against Gram-negative bacteria: Pseudomonas aeruginosa; conditions: 10 h cultivation at 37° C.; for MIC / MIC (μg/mL) P. aeruginosa: P. aeruginosa
Procedure, shortened: as §1

[4] = tested on: Enterobacter cloacae; experiment: MIC against Gram-negative bacteria: Enterobacter cloacae; conditions: 10 h cultivation at 37° C.; for MIC / MIC (μg/mL) E. cloacae: E. cloacae
Procedure, shortened: as §1

[5] = tested on: Citrobacter diversus; experiment: MIC against Gram-negative bacteria: Citrobacter diversus; conditions: 10 h cultivation at 37° C.; for MIC / MIC (μg/mL) C. diversus: C. diversus
Procedure, shortened: as §1

[6] = tested on: E. coli DH5α; experiment: Antibacterial activity: MIC and growth curve against E. coli DH5α in 96-well plate; conditions: minimal inhibitory concentration against E. coli DH5α; 96-well plate, 5×10^5 CFU/mL, 37° C., judged after 8 h
Procedure, shortened: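 Log-phase bacteria (OD600 ~0.5) resuspended in LB at 5×10^5 CFU/mL, exposed to recombinant protein at 50, 25, 12.5 μg/mL final in triplicate, 37 °C shaking at 175 rpm. OD600 read every 30 min; MIC is lowest concentration showing no growth.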

[7] = tested on: Proteus vulgaris; experiment: MIC against Gram-negative bacteria: Proteus vulgaris; conditions: 10 h cultivation at 37° C.; for MIC / MIC (μg/mL) P. vulgaris: P. vulgaris
Procedure, shortened: as §1

[8] = tested on: Klebsiella pneumonia; experiment: MIC against Gram-negative bacteria: Klebsiella pneumonia; conditions: 10 h cultivation at 37° C.; for MIC / MIC (μg/mL) K. pneumonia: K. pneumonia
Procedure, shortened: as §1

[9] = tested on: Aeromonas hydrophila; experiment: MIC against Gram-negative bacteria: Aeromonas hydrophila; conditions: 10 h cultivation at 37° C.; for MIC / MIC (μg/mL) A. hydrophila: A. hydrophila
Procedure, shortened: as §1

[10] = tested on: Moraxella catarrhalis; experiment: MIC against Gram-negative bacteria: Moraxella catarrhalis; conditions: 10 h cultivation at 37° C.; for MIC / MIC (μg/mL) M. catarrhalis: M. catarrhalis
Procedure, shortened: as §1

[11] = tested on: E. coli BL21; experiment: MIC against Gram-negative bacteria: E. coli BL21; conditions: 10 h cultivation at 37° C.
Procedure, shortened: as §1

[12] = 5×10^5 CFU/mL, two-fold serial dilution

PRT1034 (DENECEQNNGGCSEICVNLKNSYRCECGVGRVLRSDGKTCE; listed as Homo sapiens)
MIC [1]: 50 µg/mL
MIC [2]: 50 µg/mL
MIC [3]: 25 µg/mL
MIC [4]: 50 µg/mL
MIC [5]: 50 µg/mL
MIC [6]: 25 µg/mL
MIC [7]: 12.5 µg/mL
MIC [8]: 12.5 µg/mL
MIC [9]: 50 µg/mL
MIC [10]: 12.5 µg/mL
MIC ([11]; E. coli BL21): 50 µg/mL

PRT756 (KIDYCASSNHGCQHECVNTDDSYSCHCLKGFTLNPDKKTCR; listed as Homo sapiens)
MIC (μg/mL) P. mirabilis ([1]; 5×10^5 CFU/mL): 12.5 µg/mL
MIC (μg/mL) S. marcescens ([2]; 5×10^5 CFU/mL): 12.5 µg/mL
MIC (μg/mL) P. aeruginosa ([3]; 5×10^5 CFU/mL): 12.5 µg/mL
MIC (μg/mL) E. cloacae ([4]; 5×10^5 CFU/mL): 12.5 µg/mL
MIC (μg/mL) C. diversus ([5]; 5×10^5 CFU/mL): 12.5 µg/mL
MIC [6]: 12.5 µg/mL
MIC (μg/mL) P. vulgaris ([7]; 5×10^5 CFU/mL): 50 µg/mL
MIC (μg/mL) K. pneumonia ([8]; 5×10^5 CFU/mL): 50 µg/mL
MIC (μg/mL) A. hydrophila ([9]; 5×10^5 CFU/mL): 50 µg/mL
MIC (μg/mL) M. catarrhalis ([10]; 5×10^5 CFU/mL): 50 µg/mL
MIC (μg/mL) E. coli BL21 ([11]; E. coli BL21, 5×10^5 CFU/mL): 25 µg/mL

PRT191 (PCLRKYKDFCIHGECKYVKELRAPSCICHPGYHGERCH; listed as Homo sapiens)
MIC (μg/mL) P. mirabilis ([1]; 5×10^5 CFU/mL): 12.5 µg/mL
MIC (μg/mL) S. marcescens ([2]; 5×10^5 CFU/mL): 12.5 µg/mL
MIC (μg/mL) P. aeruginosa ([3]; 5×10^5 CFU/mL): 12.5 µg/mL
MIC (μg/mL) E. cloacae ([4]; 5×10^5 CFU/mL): 25 µg/mL
MIC (μg/mL) C. diversus ([5]; 5×10^5 CFU/mL): 25 µg/mL
MIC [6]: 12.5 µg/mL
MIC (μg/mL) P. vulgaris ([7]; 5×10^5 CFU/mL): 50 µg/mL
MIC (μg/mL) K. pneumonia ([8]; 5×10^5 CFU/mL): 12.5 µg/mL
MIC (μg/mL) A. hydrophila ([9]; 5×10^5 CFU/mL): 12.5 µg/mL
MIC (μg/mL) M. catarrhalis ([10]; 5×10^5 CFU/mL): 12.5 µg/mL
MIC (μg/mL) E. coli BL21 ([11]; E. coli BL21, 5×10^5 CFU/mL): 12.5 µg/mL

PRT969 (LLSPCTPNPCEHGGRCESAPGQLPVCSCPQGWQGPRCQ; listed as Homo sapiens)
MIC [1]: 50 µg/mL
MIC [2]: 12.5 µg/mL
MIC [3]: 25 µg/mL
MIC [4]: 25 µg/mL
MIC [5]: 12.5 µg/mL
MIC [6]: 50 µg/mL
MIC [7]: 25 µg/mL
MIC [8]: 50 µg/mL
MIC [9]: 25 µg/mL
MIC [10]: 25 µg/mL
MIC ([11]; E. coli BL21): 12.5 µg/mL

PRT432 (DVDECATDSHQCNPTQICINTEGGYTCSCTDGYWLLEGQCL; listed as Homo sapiens)
MIC ([1]; 5×10^5 CFU/mL): 25 µg/mL
MIC ([2]; 5×10^5 CFU/mL): 25 µg/mL
MIC ([3]; 5×10^5 CFU/mL): 25 µg/mL
MIC ([4]; 5×10^5 CFU/mL): 25 µg/mL
MIC ([5]; 5×10^5 CFU/mL): 25 µg/mL
MIC [6]: 25 µg/mL
MIC ([7]; 5×10^5 CFU/mL): 50 µg/mL
MIC ([8]; 5×10^5 CFU/mL): 12.5 µg/mL
MIC ([9]; 5×10^5 CFU/mL): 50 µg/mL
MIC ([10]; 5×10^5 CFU/mL): 12.5 µg/mL
MIC ([11]; E. coli BL21, 5×10^5 CFU/mL): 50 µg/mL

PRT1050 (HFSRCPKQYKHYCIKGRCRFVVAEQTPSCVCDEGYIGARCE; listed as Homo sapiens)
MIC P. mirabilis [1, 12]: 12.5 µg/mL
MIC S. marcescens [2, 12]: 12.5 µg/mL
MIC P. aeruginosa [3, 12]: 25 µg/mL
MIC E. cloacae [4, 12]: 25 µg/mL
MIC C. diversus [5, 12]: 12.5 µg/mL
MIC [6]: 25 µg/mL
MIC P. vulgaris [7, 12]: 50 µg/mL
MIC K. pneumonia [8, 12]: 12.5 µg/mL
MIC A. hydrophila [9, 12]: 25 µg/mL
MIC M. catarrhalis [10, 12]: 12.5 µg/mL
MIC E. coli BL21 [11, 12]: 12.5 µg/mL

PRT1482 (LCSFGCGSGICIAPNVCSCQDGEQGATCP; listed as Homo sapiens)
MIC against P. mirabilis ([1]; Proteus mirabilis, 5×10^5 CFU/mL): 50 µg/mL
MIC against S. marcescens ([2]; Serratia marcescens, 5×10^5 CFU/mL): 25 µg/mL
MIC against P. aeruginosa ([3]; Pseudomonas aeruginosa, 5×10^5 CFU/mL): 12.5 µg/mL
MIC against E. cloacae ([4]; Enterobacter cloacae, 5×10^5 CFU/mL): 12.5 µg/mL
MIC against C. diversus ([5]; Citrobacter diversus, 5×10^5 CFU/mL): 12.5 µg/mL
MIC [6]: 12.5 µg/mL
MIC against P. vulgaris ([7]; Proteus vulgaris, 5×10^5 CFU/mL): 25 µg/mL
MIC against K. pneumonia ([8]; Klebsiella pneumonia, 5×10^5 CFU/mL): 50 µg/mL
MIC against A. hydrophila ([9]; Aeromonas hydrophila, 5×10^5 CFU/mL): 50 µg/mL
MIC against M. catarrhalis ([10]; Moraxella catarrhalis, 5×10^5 CFU/mL): 25 µg/mL
MIC against E. coli BL21 ([11]; E. coli BL21, 5×10^5 CFU/mL): 50 µg/mL
